In brackets after ≈: the same amount, converted by molar mass.
Assays:
[1] = tested on: C. difficile ATCC 700057; assay: Primary MIC assay, C. difficile ATCC 700057; format: cell-based, Clostridioides difficile; conditions: Clostridioides difficile, ATCC700057; Table 1; read-out: MIC C. difficile ATCC 700057
Method: (§1) The N-arytriazole and N-naphthyltriazole peptidomimetics were subjected to antimicrobial screening. […] Vancomycin, colistin, fluconazole, and tamoxifen were used as positive controls (see Table 1 for details).
(§2) Primary screening (Gram-positive bacteria). Primary MIC assays were performed as described by the Clinical and Laboratory Standards Institute for aerobic and anaerobic bacteria. MIC values for vancomycin were within acceptable QC ranges.

[2] = tested on: C. difficile 132 (RT027); assay: Primary MIC assay, C. difficile 132 (RT027); format: cell-based, Clostridioides difficile; conditions: Clostridioides difficile; Table 1; read-out: MIC C. difficile 132 (RT027)
Method: as §1, §2

[3] = tested on: S. aureus ATCC 29213; assay: Primary MIC assay, S. aureus ATCC 29213; format: cell-based; conditions: Staphylococcus aureus, ATCC29213; Table 1; read-out: MIC S. aureus ATCC 29213
Method: as §1, §2

[4] = tested on: S. aureus NCTC 10442; assay: Primary MIC assay, S. aureus NCTC 10442 (MRSA); format: cell-based; conditions: Staphylococcus aureus; Table 1; MRSA; read-out: MIC S. aureus NCTC 10442
Method: as §1, §2

[5] = tested on: E. faecalis ATCC 29212; assay: Primary MIC assay, E. faecalis ATCC 29212; format: cell-based, Enterococcus faecalis; conditions: Enterococcus faecalis, ATCC29212; Table 1; read-out: MIC E. faecalis ATCC 29212
Method: as §1, §2

[6] = tested on: S. pneumoniae ATCC 49619; assay: Primary MIC assay, S. pneumoniae ATCC 49619; format: cell-based, Streptococcus pneumoniae; conditions: Streptococcus pneumoniae, ATCC49619; Table 1; read-out: MIC S. pneumoniae ATCC 49619
Method: as §1, §2

[7] = tested on: E. coli ATCC 25922; assay: Primary MIC assay, E. coli ATCC 25922; format: cell-based; conditions: Escherichia coli, ATCC25922; Table 1; read-out: MIC E. coli ATCC 25922
[8] = Cytotoxicity (CC50) assay by CO-ADD; format: cell-based, human; conditions: human, HEK293 cells (ATCC CRL-1573); Table 1; cytotoxicity on HEK293 cells, tested at ≤32 µg/mL
Text: as §1
(§3) Secondary screening (MRSA and Gram-negative bacteria) and cytotoxicity assay–performed by the Community for Open Antimicrobial Drug Discovery (CO-ADD). Samples were provided to CO-ADD [29] for antimicrobial screening by whole cell growth inhibition assays.
Cytotoxicity Assay. These were performed as described previously.

[9] = tested on: human erythrocytes; assay: Hemolysis assay, HC50 determination; format: cell-based
Method: Hemolysis assay (human erythrocytes)–HC50 determination. These were performed as described previously.

[10] = tested on: S. aureus ATCC 43300; assay: CO-ADD MIC assay, S. aureus ATCC 43300 (MRSA); format: cell-based; conditions: Staphylococcus aureus, Table S1; MRSA; CO-ADD; read-out: MIC S. aureus ATCC 43300
Text: as §1, §3
(§4) Bacterial Inhibition–MIC Assay. These were performed as described previously.

[11] = tested on: P. aeruginosa ATCC 27853; assay: CO-ADD MIC assay, P. aeruginosa ATCC 27853; format: cell-based; conditions: Pseudomonas aeruginosa, ATCC27853, Table S1
Text: as §1, §3, §4

[12] = tested on: K. pneumoniae ATCC 700603; assay: CO-ADD MIC assay, K. pneumoniae ATCC 700603; format: cell-based; conditions: Klebsiella pneumoniae, ATCC700603, Table S1, multi-drug resistant
Text: as §1, §3, §4

[13] = tested on: A. baumannii ATCC 19606; assay: CO-ADD MIC assay, A. baumannii ATCC 19606; format: cell-based; conditions: Acinetobacter baumannii, ATCC19606, Table S1
Text: as §1, §3, §4

[14] = tested on: E. coli ATCC 25922; assay: CO-ADD MIC assay, E. coli ATCC 25922; format: cell-based; conditions: Escherichia coli, ATCC25922, Table S1
Text: as §1, §3, §4

[15] = tested on: C. albicans ATCC 90028; assay: CO-ADD MIC assay, C. albicans ATCC 90028; format: cell-based; conditions: Candida albicans, ATCC90028, Table S1
Text: as §1, §3

[16] = tested on: Cryptococcus neoformans var. grubii ATCC 208821; assay: CO-ADD MIC assay, C. neoformans var. grubii ATCC 208821; format: cell-based; conditions: for MIC: Cryptococcus neoformans, ATCC208821, Table S1
Text: as §1, §3

[17] = Table 1, lysis of human erythrocytes
[18] = Table S1, footnote says lysis of sheep erythrocytes

Structure (SMILES) | MIC [1] | MIC [2] | MIC [3] | MIC [4] | MIC [5] | MIC [6] | MIC [7] | CC50 [8] | HC50 [9, 17] | HC50 [9, 18] | MIC [10] | MIC [11] | MIC [12] | MIC [13] | MIC [14] | MIC [15] | MIC [16] | MIC C. neoformans var. grubii ATCC 208821 ([16]; Table S1)
CC(C)CCc1cn(-c2c(OCC(=O)N[C@H](CCCNC(=N)N)Cn3cc(Cc4ccccc4)nn3)ccc3ccccc23)nn1.Cl [Compound 23] | 32 µg/mL | 32 µg/mL | 4 µg/mL | 4 µg/mL | 4 µg/mL | 4 µg/mL | 64 µg/mL | > 32 µg/mL | >32 µg/mL | > 32 µg/mL | 8 µg/mL | > 32 µg/mL | > 32 µg/mL | > 32 µg/mL | 32 µg/mL | 32 µg/mL | 16 µg/mL | 
CC(C)CCc1cnnn1-c1ccccc1OCC(=O)N[C@H](CCCNC(=N)N)Cn1cc(Cc2ccccc2)nn1.Cl [Compound 16] | 32 µg/mL | 32 µg/mL | 32 µg/mL | 32 µg/mL | 32 µg/mL | 32 µg/mL | > 128 µg/mL | > 32 µg/mL | >32 µg/mL | > 32 µg/mL | 32 µg/mL | > 32 µg/mL | > 32 µg/mL | > 32 µg/mL | > 32 µg/mL | > 32 µg/mL | 32 µg/mL | 
CC(C)CCc1cn(-c2c(OCC(=O)N[C@H](CCCNC(=N)N)Cn3cc(CC4CCCCC4)nn3)ccc3ccccc23)nn1.Cl [Compound 22] | 32 µg/mL | 32 µg/mL | 4 µg/mL | 4 µg/mL | 8 µg/mL | 8 µg/mL | 32 µg/mL | > 32 µg/mL | >32 µg/mL | > 32 µg/mL | 4 µg/mL | > 32 µg/mL | > 32 µg/mL | > 32 µg/mL | 32 µg/mL | 16 µg/mL | 32 µg/mL | 
CC(C)CCc1cn(-c2ccccc2OCC(=O)N[C@H](CCCNC(=N)N)Cn2cc(C3CCCCC3)nn2)nn1 [Compound 10] | 32 µg/mL (≈ 56.7 µM) | 64 µg/mL (≈ 113 µM) | 32 µg/mL (≈ 56.7 µM) | 32 µg/mL (≈ 56.7 µM) | 32 µg/mL (≈ 56.7 µM) | 16 µg/mL (≈ 28.3 µM) | 128 µg/mL (≈ 227 µM) | > 32 µg/mL | >32 µg/mL | > 32 µg/mL | 32 µg/mL (≈ 56.7 µM) | > 32 µg/mL | > 32 µg/mL | > 32 µg/mL | > 32 µg/mL | > 32 µg/mL | 32 µg/mL (≈ 56.7 µM) | 
CC(C)CCc1cnnn1-c1ccccc1OCC(=O)N[C@H](CCCNC(=N)N)Cn1cc(C2CCCCC2)nn1 [Compound 14] | 128 µg/mL (≈ 227 µM) | 128 µg/mL (≈ 227 µM) | 32 µg/mL (≈ 56.7 µM) | 32 µg/mL (≈ 56.7 µM) | 32 µg/mL (≈ 56.7 µM) | 32 µg/mL (≈ 56.7 µM) | > 128 µg/mL | > 32 µg/mL | >32 µg/mL | > 32 µg/mL | 32 µg/mL (≈ 56.7 µM) | > 32 µg/mL | > 32 µg/mL | > 32 µg/mL | > 32 µg/mL | > 32 µg/mL | 32 µg/mL (≈ 56.7 µM) | 
CC(C)CCOc1ccccc1-n1nncc1COCC(=O)N[C@H](CCCCN)C(=O)N[C@H](CCCNC(=N)N)Cn1cc(CC2CCCCC2)nn1 [Compound 49] | > 32 µg/mL | > 32 µg/mL | 32 µg/mL (≈ 43.4 µM) | > 32 µg/mL | > 32 µg/mL | > 32 µg/mL | > 32 µg/mL | > 32 µg/mL | 17.1 µg/mL | 17.1 µg/mL | 32 µg/mL (≈ 43.4 µM) | > 32 µg/mL | > 32 µg/mL | > 32 µg/mL | > 32 µg/mL | > 32 µg/mL | > 32 µg/mL | 
CC(C)CCOc1ccccc1-n1nncc1COCC(=O)N[C@H](CCCCN)C(=O)N[C@H](CCCNC(=N)N)Cn1cc(Cc2ccccc2)nn1 [Compound 50] | > 32 µg/mL | > 32 µg/mL | 32 µg/mL (≈ 43.8 µM) | > 32 µg/mL | > 32 µg/mL | > 32 µg/mL | > 32 µg/mL | > 32 µg/mL | 19.8 µg/mL | 19.8 µg/mL | 32 µg/mL (≈ 43.8 µM) | > 32 µg/mL | > 32 µg/mL | > 32 µg/mL | > 32 µg/mL | > 32 µg/mL | > 32 µg/mL | 
CC(C)CCc1cnnn1-c1c(OCC(=O)N[C@H](CCCNC(=N)N)Cn2cc(C3CCCCC3)nn2)ccc2ccccc12 [Compound 24] | 32 µg/mL (≈ 52 µM) | 32 µg/mL (≈ 52 µM) | 8 µg/mL (≈ 13 µM) | 8 µg/mL (≈ 13 µM) | 8 µg/mL (≈ 13 µM) | 8 µg/mL (≈ 13 µM) | 32 µg/mL (≈ 52 µM) | 21.9 µg/mL (≈ 35.6 µM) | >32 µg/mL | > 32 µg/mL | 8 µg/mL (≈ 13 µM) | 32 µg/mL (≈ 52 µM) | > 32 µg/mL | 32 µg/mL (≈ 52 µM) | 32 µg/mL (≈ 52 µM) | 32 µg/mL (≈ 52 µM) | > 32 µg/mL | 
CC(C)CCc1cn(-c2ccccc2OCC(=O)N[C@H](CCCNC(=N)N)Cn2cc(Cc3ccccc3)nn2)nn1.Cl [Compound 13] | 32 µg/mL | 64 µg/mL | 32 µg/mL | 32 µg/mL | 32 µg/mL | 16 µg/mL | 128 µg/mL | > 32 µg/mL | >32 µg/mL | > 32 µg/mL | 32 µg/mL | > 32 µg/mL | > 32 µg/mL | > 32 µg/mL | > 32 µg/mL | > 32 µg/mL | 32 µg/mL | 
CC(C)CCc1cn(-c2ccccc2OCC(=O)N[C@H](CCCCN)C(=O)N[C@H](CCCNC(=N)N)Cn2cc(Cc3ccccc3)nn2)nn1 [Compound 36] | 128 µg/mL (≈ 183 µM) | 128 µg/mL (≈ 183 µM) | 32 µg/mL (≈ 45.7 µM) | 32 µg/mL (≈ 45.7 µM) | 64 µg/mL (≈ 91.3 µM) | 16 µg/mL (≈ 22.8 µM) | 128 µg/mL (≈ 183 µM) | > 32 µg/mL | >32 µg/mL | > 32 µg/mL | 16 µg/mL (≈ 22.8 µM) | > 32 µg/mL | > 32 µg/mL | > 32 µg/mL | > 32 µg/mL | 16 µg/mL (≈ 22.8 µM) | 32 µg/mL (≈ 45.7 µM) | 
CC(C)CCc1cnnn1-c1c(OCC(=O)N[C@H](CCCNC(=N)N)Cn2cc(CC3CCCCC3)nn2)ccc2ccccc12.Cl [Compound 25] | 32 µg/mL | 64 µg/mL | 4 µg/mL | 4 µg/mL | 8 µg/mL | 8 µg/mL | 16 µg/mL | > 32 µg/mL | 10.6 µg/mL | 10.6 µg/mL | 4 µg/mL | > 32 µg/mL | > 32 µg/mL | 32 µg/mL | 32 µg/mL | 16 µg/mL | 4 to 8 µg/mL | 8 µg/mL
CC(C)CCc1cnnn1-c1ccccc1OCC(=O)N[C@H](CCCNC(=N)N)Cn1cc(CC2CCCCC2)nn1.Cl [Compound 15] | 64 µg/mL | 64 µg/mL | 16 µg/mL | 16 µg/mL | 16 µg/mL | 16 µg/mL | 128 µg/mL | > 32 µg/mL | >32 µg/mL | > 32 µg/mL | 32 µg/mL | > 32 µg/mL | > 32 µg/mL | > 32 µg/mL | > 32 µg/mL | > 32 µg/mL | 32 µg/mL | 
CC(C)CCc1cnnn1-c1ccccc1OCC(=O)N[C@H](CCCCN)C(=O)N[C@H](CCCNC(=N)N)Cn1cc(C2CCCCC2)nn1 [Compound 37] | 64 µg/mL (≈ 92.4 µM) | 64 µg/mL (≈ 92.4 µM) | 16 µg/mL (≈ 23.1 µM) | 32 µg/mL (≈ 46.2 µM) | 16 µg/mL (≈ 23.1 µM) | 8 µg/mL (≈ 11.5 µM) | 64 µg/mL (≈ 92.4 µM) | > 32 µg/mL | >32 µg/mL | > 32 µg/mL | 16 µg/mL (≈ 23.1 µM) | > 32 µg/mL | > 32 µg/mL | > 32 µg/mL | > 32 µg/mL | 16 µg/mL (≈ 23.1 µM) | 16 µg/mL (≈ 23.1 µM) | 
